pIC50: −log10 of the molar value.
Tested on: CN0375-F725-PDC KRAS spheroid viability
Test: Anticancer human tumor CN0375-F725-PDC patient-derived colon carcinoma cell line growth inhibition [KRAS2]
Conditions: spheroids with HUVEC and MSC; for viability, T/C: stronger effect = lower value
Procedure, shortened: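 KRAS-mutant tumor cells were grown as spheroids with HUVEC endothelial cells and human MSCs as stroma. Targeted agents were tested alone and with KRAS pathway inhibitors. Doses started at or near clinical Cmax, or 10 microM, descending half-log.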

[1] = curve of first compound, second compound 0.1 µM
[2] = curve of first compound, second compound 0.316 µM
[3] = curve of first compound, second compound 1 µM
[4] = curve of first compound, second compound 3.16 µM
[5] = curve of first compound, second compound 10 µM
[6] = second compound 0.1 µM, first compound 0.0316 µM
[7] = second compound 0.1 µM, first compound 0.1 µM
[8] = second compound 0.1 µM, first compound 0.316 µM
[9] = second compound 0.1 µM, first compound 1 µM
[10] = second compound 0.1 µM, first compound 3.16 µM
[11] = second compound 0.1 µM, first compound 10 µM
[12] = second compound 0.316 µM, first compound 0.0316 µM
[13] = second compound 0.316 µM, first compound 0.1 µM
[14] = second compound 0.316 µM, first compound 0.316 µM
[15] = second compound 0.316 µM, first compound 1 µM
[16] = second compound 0.316 µM, first compound 3.16 µM
[17] = second compound 0.316 µM, first compound 10 µM
[18] = second compound 1 µM, first compound 0.0316 µM
[19] = second compound 1 µM, first compound 0.1 µM
[20] = second compound 1 µM, first compound 0.316 µM
[21] = second compound 1 µM, first compound 1 µM
[22] = second compound 1 µM, first compound 3.16 µM
[23] = second compound 1 µM, first compound 10 µM
[24] = second compound 3.16 µM, first compound 0.0316 µM
[25] = second compound 3.16 µM, first compound 0.1 µM
[26] = second compound 3.16 µM, first compound 0.316 µM
[27] = second compound 3.16 µM, first compound 1 µM
[28] = second compound 3.16 µM, first compound 3.16 µM
[29] = second compound 3.16 µM, first compound 10 µM
[30] = second compound 10 µM, first compound 0.0316 µM
[31] = second compound 10 µM, first compound 0.1 µM
[32] = second compound 10 µM, first compound 0.316 µM
[33] = second compound 10 µM, first compound 1 µM
[34] = second compound 10 µM, first compound 3.16 µM
[35] = second compound 10 µM, first compound 10 µM
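Further: spheroids exposed to agents for 7 days.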

Cn1nccc1Nc1nccc(-c2cc3c(s2)C(C)(C)N(CCN2CCOCC2)C3=O)n1 + COc1cc2nc(C)nc(NC(C)c3cc(N)cc(C(F)(F)F)c3)c2cc1OC1CCOC1
pIC50 [1]: 5.60 | pIC50 [2]: 5.66 | pIC50 [3]: 5.80 | pIC50 [4]: 6.31 | pIC50 [5]: > 7.50 | viability, T/C [6]: 96.5% | viability, T/C [7]: 85.8% | viability, T/C [8]: 68.7% | viability, T/C [9]: 59.9% | viability, T/C [10]: 47.2% | viability, T/C [11]: 41.6% | viability, T/C [12]: 88.8% | viability, T/C [13]: 83.2% | viability, T/C [14]: 67.2% | viability, T/C [15]: 59.9% | viability, T/C [16]: 45.2% | viability, T/C [17]: 39.6% | viability, T/C [18]: 92.9% | viability, T/C [19]: 80.5% | viability, T/C [20]: 63.8% | viability, T/C [21]: 53.2% | viability, T/C [22]: 46.1% | viability, T/C [23]: 37.6% | viability, T/C [24]: 75.6% | viability, T/C [25]: 68.8% | viability, T/C [26]: 53.8% | viability, T/C [27]: 41.6% | viability, T/C [28]: 35.1% | viability, T/C [29]: 28.2% | viability, T/C [30]: 11.9% | viability, T/C [31]: 13.1% | viability, T/C [32]: 10.9% | viability, T/C [33]: 8.43% | viability, T/C [34]: 4.35% | viability, T/C [35]: 1.87%

CC(=O)Nc1cccc(-n2c(=O)n(C3CC3)c(=O)c3c(Nc4ccc(I)cc4F)n(C)c(=O)c(C)c32)c1 + CNCc1ccccc1-c1csc(C(C)Nc2nc(C)nc3cc(OC)c(OC)cc23)c1
pIC50 [1]: 8.47 | pIC50 [2]: 8.72 | pIC50 [3]: > 10.00 | pIC50 [4]: > 10.00 | pIC50 [5]: > 10.00 | viability, T/C (second compound 0.1 µM, first compound 0.0001 µM): 89.5% | viability, T/C (second compound 0.1 µM, first compound 0.000316 µM): 78% | viability, T/C (second compound 0.1 µM, first compound 0.001 µM): 59.4% | viability, T/C (second compound 0.1 µM, first compound 0.00316 µM): 51% | viability, T/C (second compound 0.1 µM, first compound 0.01 µM): 42.3% | viability, T/C [6]: 30.2% | viability, T/C (second compound 0.316 µM, first compound 0.0001 µM): 83.9% | viability, T/C (second compound 0.316 µM, first compound 0.000316 µM): 70.9% | viability, T/C (second compound 0.316 µM, first compound 0.001 µM): 56.4% | viability, T/C (second compound 0.316 µM, first compound 0.00316 µM): 42.7% | viability, T/C (second compound 0.316 µM, first compound 0.01 µM): 37.9% | viability, T/C [12]: 26.6% | viability, T/C (second compound 1 µM, first compound 0.0001 µM): 45.4% | viability, T/C (second compound 1 µM, first compound 0.000316 µM): 36.8% | viability, T/C (second compound 1 µM, first compound 0.001 µM): 13.3% | viability, T/C (second compound 1 µM, first compound 0.00316 µM): 18.2% | viability, T/C (second compound 1 µM, first compound 0.01 µM): 11.4% | viability, T/C [18]: 3.9% | viability, T/C (second compound 3.16 µM, first compound 0.0001 µM): 1.63% | viability, T/C (second compound 3.16 µM, first compound 0.000316 µM): 0.39% | viability, T/C (second compound 3.16 µM, first compound 0.001 µM): 0.3% | viability, T/C (second compound 3.16 µM, first compound 0.00316 µM): 0.37% | viability, T/C (second compound 3.16 µM, first compound 0.01 µM): 0.23% | viability, T/C [24]: 0.73% | viability, T/C (second compound 10 µM, first compound 0.0001 µM): 0.67% | viability, T/C (second compound 10 µM, first compound 0.000316 µM): 0.27% | viability, T/C (second compound 10 µM, first compound 0.001 µM): 0.26% | viability, T/C (second compound 10 µM, first compound 0.00316 µM): 0.37% | viability, T/C (second compound 10 µM, first compound 0.01 µM): 0.36% | viability, T/C [30]: 0.25%

CCNC(=O)CC1N=C(c2ccc(Cl)cc2)c2cc(OC)ccc2-n2c(C)nnc21 (configuration not stated)
viability, T/C (compound 0.0316 µM): 100% [middle of 5 runs] | viability, T/C (compound 0.1 µM): 97.1% [middle of 5 runs] | viability, T/C (compound 0.316 µM): 90.4% [middle of 5 runs] | viability, T/C (compound 1 µM): 84.2% [middle of 5 runs] | viability, T/C (compound 3.16 µM): 74.3% [middle of 5 runs] | viability, T/C (compound 10 µM): 58.6% [middle of 5 runs] | pIC50 (curve of compound): < 5.00

CC1(C)CCC(CN2CCN(c3ccc(C(=O)NS(=O)(=O)c4ccc(NCC5CCOCC5)c([N+](=O)[O-])c4)c(Oc4cnc5[nH]ccc5c4)c3)CC2)=C(c2ccc(Cl)cc2)C1 + C=CC(=O)N1CCN(c2nc(=O)n(-c3c(C)ccnc3C(C)C)c3nc(-c4c(O)cccc4F)c(F)cc23)C(C)C1
pIC50 [1]: 5.37 | pIC50 [2]: 5.35 | pIC50 [3]: 5.46 | pIC50 [4]: 5.18 | pIC50 [5]: 5.20 | viability, T/C [6]: 112% | viability, T/C [7]: 113% | viability, T/C [8]: 105% | viability, T/C [9]: 105% | viability, T/C [10]: 56.9% | viability, T/C [11]: 30.4% | viability, T/C [12]: 110% | viability, T/C [13]: 115% | viability, T/C [14]: 106% | viability, T/C [15]: 108% | viability, T/C [16]: 58.7% | viability, T/C [17]: 30.2% | viability, T/C [18]: 110% | viability, T/C [19]: 116% | viability, T/C [20]: 109% | viability, T/C [21]: 103% | viability, T/C [22]: 52.3% | viability, T/C [23]: 23.5% | viability, T/C [24]: 113% | viability, T/C [25]: 118% | viability, T/C [26]: 110% | viability, T/C [27]: 104% | viability, T/C [28]: 60.1% | viability, T/C [29]: 44.3% | viability, T/C [30]: 101% | viability, T/C [31]: 104% | viability, T/C [32]: 106% | viability, T/C [33]: 103% | viability, T/C [34]: 63.8% | viability, T/C [35]: 40.6%

O=C(c1cc(Cc2n[nH]c(=O)c3ccccc23)ccc1F)N1CCN(C(=O)C2CC2)CC1 + COc1cc2nc(C)nc(NC(C)c3cc(N)cc(C(F)(F)F)c3)c2cc1OC1CCOC1
pIC50 [1]: < 5.00 | pIC50 [2]: < 5.00 | pIC50 [3]: < 5.00 | pIC50 [4]: < 5.00 | pIC50 [5]: < 5.00 | viability, T/C [6]: 105% | viability, T/C [7]: 106% | viability, T/C [8]: 98.4% | viability, T/C [9]: 107% | viability, T/C [10]: 98.2% | viability, T/C [11]: 106% | viability, T/C [12]: 102% | viability, T/C [13]: 103% | viability, T/C [14]: 97.8% | viability, T/C [15]: 98.8% | viability, T/C [16]: 98.8% | viability, T/C [17]: 93.2% | viability, T/C [18]: 111% | viability, T/C [19]: 107% | viability, T/C [20]: 99% | viability, T/C [21]: 97.8% | viability, T/C [22]: 107% | viability, T/C [23]: 93.5% | viability, T/C [24]: 92.8% | viability, T/C [25]: 95.4% | viability, T/C [26]: 85.8% | viability, T/C [27]: 84.6% | viability, T/C [28]: 84.9% | viability, T/C [29]: 71.5% | viability, T/C [30]: 82.2% | viability, T/C [31]: 81.4% | viability, T/C [32]: 79.3% | viability, T/C [33]: 69.9% | viability, T/C [34]: 104% | viability, T/C [35]: 98%

From PubChem BioAssay AID1963860 (Molecular Pharmacology Branch, DTP, NCI, 2024)
